Where two headings read alike, the source gives them in different places.
Legend:
[1] = molecular target: Mouse Ghrelin Receptor (GHS-R 1A) (Mus musculus (Mouse), UniProt Q99P50); experiment: Calcium release, antagonist; format: cell-based
Source text: (§1) Mouse LTK-cells (ATCC CCL-1.3) were stably transfected with a plasmid containing the CMV minimal promoter (CMVmin) linked to three cAMP response elements (CRE) followed by a luciferase reporter gene. Based on this parental cell line, single cell clones stably overexpressing the human, rat or mouse GHS-R 1A have been established and characterized with respect to suitability for the different assay formats.
(§2) For determination of calcium release the respective cell line was loaded with Fluo-4 NW Calcium Assay Kit (Moleculare Probes/Invitrogen # F10741) for 80 min @ 37° C. After 15 minutes of preincubation with different concentrations of the test compounds ghrelin was added and the signal was monitored for 60 seconds by a FlexStation3 microplate reader (Molecular Devices).
(§3) IC50 values were determined by using the GraphPad Prism analysis program (GraphPad Software).
(§4) In the following table 1 results obtained for selected compounds of the invention are presented in comparison to compound 50 disclosed in WO07/020,013. Values given are either single measurements or mean values of up to nine independent experiments performed in duplicate (binding) or quadruplicate (functional assays) measurements.

[2] = molecular target: Rat Ghrelin Receptor (GHS-R 1A) (Rattus norvegicus (Rat), UniProt O08725); experiment: Calcium release, antagonist; format: cell-based
Chain of Rat Ghrelin Receptor (GHS-R 1A) (O08725 whole entry): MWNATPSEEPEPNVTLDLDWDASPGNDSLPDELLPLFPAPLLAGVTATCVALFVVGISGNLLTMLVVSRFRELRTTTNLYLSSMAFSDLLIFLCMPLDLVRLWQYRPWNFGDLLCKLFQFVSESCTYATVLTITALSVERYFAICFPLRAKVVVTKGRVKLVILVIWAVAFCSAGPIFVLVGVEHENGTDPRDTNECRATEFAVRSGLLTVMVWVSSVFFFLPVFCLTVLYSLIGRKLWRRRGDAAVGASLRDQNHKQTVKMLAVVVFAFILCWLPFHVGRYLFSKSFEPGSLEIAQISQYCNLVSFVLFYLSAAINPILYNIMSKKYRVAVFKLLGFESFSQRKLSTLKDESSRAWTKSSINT
Source text: as §1, §2, §3, §4

[3] = molecular target: MDR-1 (P-glycoprotein, Pgp) (Homo sapiens (Human), UniProt P08183); experiment: Inhibition of MDR1 ATPase (Pgp-Glo assay, SF9 membrane preparations); format: biochemical
Chain of MDR-1 (P-glycoprotein, Pgp) (P08183 whole entry): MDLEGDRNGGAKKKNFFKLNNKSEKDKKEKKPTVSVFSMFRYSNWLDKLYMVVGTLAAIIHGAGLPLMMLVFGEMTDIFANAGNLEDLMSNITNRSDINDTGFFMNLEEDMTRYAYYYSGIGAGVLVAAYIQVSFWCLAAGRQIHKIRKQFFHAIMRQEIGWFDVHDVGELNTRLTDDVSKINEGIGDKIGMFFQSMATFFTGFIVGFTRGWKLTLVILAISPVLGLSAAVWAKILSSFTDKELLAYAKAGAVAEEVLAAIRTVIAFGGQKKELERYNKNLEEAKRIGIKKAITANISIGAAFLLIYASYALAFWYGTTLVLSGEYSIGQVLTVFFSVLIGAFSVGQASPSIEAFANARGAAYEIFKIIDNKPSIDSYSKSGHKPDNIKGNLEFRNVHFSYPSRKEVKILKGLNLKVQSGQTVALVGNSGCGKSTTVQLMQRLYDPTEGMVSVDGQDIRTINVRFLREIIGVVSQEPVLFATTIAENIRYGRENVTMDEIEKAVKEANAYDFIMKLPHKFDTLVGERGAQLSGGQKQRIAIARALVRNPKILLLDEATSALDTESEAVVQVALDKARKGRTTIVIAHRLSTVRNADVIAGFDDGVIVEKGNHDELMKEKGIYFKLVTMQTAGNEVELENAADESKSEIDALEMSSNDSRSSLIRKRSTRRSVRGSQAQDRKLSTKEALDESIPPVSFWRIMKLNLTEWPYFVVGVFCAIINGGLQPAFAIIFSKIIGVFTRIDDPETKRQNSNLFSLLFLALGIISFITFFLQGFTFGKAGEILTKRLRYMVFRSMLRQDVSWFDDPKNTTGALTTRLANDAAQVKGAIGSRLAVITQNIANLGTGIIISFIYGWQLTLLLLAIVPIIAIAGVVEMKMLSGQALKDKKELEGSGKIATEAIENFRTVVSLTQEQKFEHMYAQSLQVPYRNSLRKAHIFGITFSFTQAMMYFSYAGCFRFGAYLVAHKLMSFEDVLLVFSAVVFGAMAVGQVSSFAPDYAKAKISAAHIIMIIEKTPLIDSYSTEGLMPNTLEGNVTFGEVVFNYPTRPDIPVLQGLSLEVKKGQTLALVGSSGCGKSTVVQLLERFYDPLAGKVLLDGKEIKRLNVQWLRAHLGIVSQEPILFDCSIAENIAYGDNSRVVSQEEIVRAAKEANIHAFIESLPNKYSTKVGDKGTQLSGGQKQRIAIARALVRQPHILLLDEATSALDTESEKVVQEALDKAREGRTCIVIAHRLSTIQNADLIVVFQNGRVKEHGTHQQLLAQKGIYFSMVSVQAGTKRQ
Procedure: For detection of MDR-1 (P-glycoprotein, Pgp) ATPase activity commercially available membrane preparations of MDR-1 overexpressing SF9 insect cells (SB-MDR1-Sf9-ATPase Membrane; 2.5 mg/500 μL; Solvo/tebu-bio #168SB-MDR1-Sf9-ATPase) were used. Since transport by MDR-1 is ATP-dependent, ATP consumption indicates transport activity of MDR-1. ATP consumption is detected as a decrease in luminescence from a second reaction with a recombinant firefly luciferase by using the Pgp-Glo™ Assay Kit (Promega # V3591).

hERG channel = hERG channel (Homo sapiens (Human), UniProt Q12809); experiment: Predictor hERG Fluorescence Polarization Assay; format: binding
Chain of hERG channel (Q12809 whole entry): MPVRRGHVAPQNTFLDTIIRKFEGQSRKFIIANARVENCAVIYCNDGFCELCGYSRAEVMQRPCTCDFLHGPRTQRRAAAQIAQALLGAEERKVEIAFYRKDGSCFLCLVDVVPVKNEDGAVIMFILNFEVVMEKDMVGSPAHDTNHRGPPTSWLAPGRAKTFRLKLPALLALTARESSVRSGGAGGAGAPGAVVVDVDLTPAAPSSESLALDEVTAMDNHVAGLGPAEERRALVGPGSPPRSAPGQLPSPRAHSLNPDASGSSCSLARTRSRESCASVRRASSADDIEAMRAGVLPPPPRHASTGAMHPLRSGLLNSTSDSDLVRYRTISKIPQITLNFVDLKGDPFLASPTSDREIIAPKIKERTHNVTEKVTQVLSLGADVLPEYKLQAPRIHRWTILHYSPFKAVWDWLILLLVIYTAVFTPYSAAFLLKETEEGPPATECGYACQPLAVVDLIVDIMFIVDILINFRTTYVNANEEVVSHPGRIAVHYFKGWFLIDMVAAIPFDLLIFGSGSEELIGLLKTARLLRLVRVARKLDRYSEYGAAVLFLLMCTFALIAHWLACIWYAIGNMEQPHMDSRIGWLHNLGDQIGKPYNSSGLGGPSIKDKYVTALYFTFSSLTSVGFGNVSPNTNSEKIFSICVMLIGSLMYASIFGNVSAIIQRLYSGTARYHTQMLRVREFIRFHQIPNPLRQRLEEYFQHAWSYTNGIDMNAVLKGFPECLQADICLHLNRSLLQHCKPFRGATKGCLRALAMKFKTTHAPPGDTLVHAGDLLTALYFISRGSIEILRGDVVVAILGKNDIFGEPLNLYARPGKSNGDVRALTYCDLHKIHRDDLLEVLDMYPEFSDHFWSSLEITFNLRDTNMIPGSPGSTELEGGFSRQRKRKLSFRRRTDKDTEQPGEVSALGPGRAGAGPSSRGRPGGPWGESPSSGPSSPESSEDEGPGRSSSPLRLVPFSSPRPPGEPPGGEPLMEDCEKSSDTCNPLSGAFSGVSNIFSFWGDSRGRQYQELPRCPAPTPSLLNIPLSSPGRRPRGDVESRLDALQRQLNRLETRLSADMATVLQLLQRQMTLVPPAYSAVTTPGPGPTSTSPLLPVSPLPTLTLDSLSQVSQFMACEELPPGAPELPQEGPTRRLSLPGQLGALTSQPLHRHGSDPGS
Source text: The Predictor™ hERG Fluorescence Polarization Assay (Invitrogen, Karlsruhe, GER) determines whether test compounds block the hERG channel [Piper, D. R. et al., Assay Drug Dev Technol. 2008, 6(2):213-23]. The assay uses a membrane fraction containing hERG channel protein (Predictor™ hERG Membrane) and a high-affinity red fluorescent hERG channel ligand, or “tracer” (Predictor™ hERG Tracer Red), in a homogenous, fluorescence polarization (FP)-based format. Compounds that bind to the hERG channel protein (competitors) are identified by their ability to displace the tracer, resulting in a lower fluorescence polarization. The assay was performed according to guidelines of the manufacturer

CYP3A4 = CYP3A4 (Homo sapiens (Human), UniProt P08684); experiment: CYP3A4 inhibition in human liver microsomes, direct and metabolism-dependent; format: in vitro ADME
Chain of CYP3A4 (P08684 whole entry): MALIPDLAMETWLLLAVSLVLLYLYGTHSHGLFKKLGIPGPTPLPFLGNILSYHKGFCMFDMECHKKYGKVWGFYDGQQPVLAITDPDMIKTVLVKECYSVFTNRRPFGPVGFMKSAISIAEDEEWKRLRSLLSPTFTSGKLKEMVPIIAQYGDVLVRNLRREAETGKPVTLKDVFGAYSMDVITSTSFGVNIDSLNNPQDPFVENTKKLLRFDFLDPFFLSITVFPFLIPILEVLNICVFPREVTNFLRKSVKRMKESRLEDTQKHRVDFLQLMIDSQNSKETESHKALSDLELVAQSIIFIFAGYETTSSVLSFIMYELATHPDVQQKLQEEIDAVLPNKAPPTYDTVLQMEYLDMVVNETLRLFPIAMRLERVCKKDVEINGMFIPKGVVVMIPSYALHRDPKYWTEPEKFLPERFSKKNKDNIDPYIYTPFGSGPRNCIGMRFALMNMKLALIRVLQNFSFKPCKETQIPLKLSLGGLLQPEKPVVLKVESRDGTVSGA
Procedure: Direct and metabolism-dependent inhibition of CYP enzymes are assessed with specific marker substrates by a HPLC-based UV detection method in human liver microsomes. Incubations are carried out as doublets with final concentrations ranging from 0.01 to 200 μM (30 min, 37° C.). Metabolism-dependent inhibition was assessed by incubation for 30 minutes in the presence of NADPH prior to the addition of marker substrate to allow the generation of metabolites. Percent inhibition is plotted against concentration to calculate or extrapolate IC50 values from the sigmoid curve.

[4] = Stability in liver microsomes; format: in vitro ADME, human; details: @37° C./1 mg/ml Liver Microsomes, 10 μM
Procedure: (§5) Metabolic stability in liver microsomes of different species (in the presence of NADPH, 1 mg/ml microsomal protein) was evaluated at 37° C. over time in triplicates at a test concentration of 10 μM. Loss of parent compound is measured by an HPLC-based UV detection method. For prediction of rat hepatic clearance half-lives (t1/2) were fitted from first-order rate constant k (min^−1) obtained from the slope of time versus In % remaining.

[5] = Stability in liver microsomes; format: in vitro ADME, rat; details: @37° C./1 mg/ml Liver Microsomes, 10 μM
Procedure: as §5

[6] = Stability in liver microsomes; format: in vitro ADME, mouse; details: 37° C./1 mg/ml Liver Microsomes, 10 μM
Procedure: as §5

[7] = CaCo-2 permeability assay; format: in vitro ADME; details: human; for Papp A→B at 2 h: a to b, read-out: CaCo-2 Assay Papp ab; for Papp A→B at 2 h / Papp B→A at 2 h: 3 or 5 μM, 2 hours at 37° C.; for Papp B→A at 2 h: b to a, read-out: CaCo-2 Assay Papp ba; for efflux ratio at 2 h: read-out: CaCo-2 Assay ba/ab
Procedure: For the CaCo-2 permeability assay 80.000 CaCo-2 cells (ATCC HTB-37) were seeded in DMEM supplemented with 10% FCS, 1% Penicillin/Streptomycin and 1% non-essential amino acids per 24 well transwell plate (Corning 3397) and were grown for 21 days by changing the media every second day. On day 21 the medium was replaced by HBSS buffer (Invitrogen #14065) supplemented with 0.25% and 1% BSA for the donor and acceptor compartment, respectively. The compounds were added to the respective donor compartment in a concentration of 3 or 5 μM and were incubated for 2 hours at 37° C. The respective compound concentrations were determined by LC-MS analytics using an API 2000. Data analysis was performed as described by Sun and Pang 2008, Drug Metabolism and Disposition 36, 102-123.

[8] = molecular target: T1, Human Ghrelin Receptor (GHS-R 1A) (Homo sapiens (Human), UniProt Q92847); experiment: Competitive binding, iodinated ghrelin tracer, intact LTK-cells overexpressing GHS-R 1A; details: 60 min at 37° C.
T1 sequence (Q92847 whole entry): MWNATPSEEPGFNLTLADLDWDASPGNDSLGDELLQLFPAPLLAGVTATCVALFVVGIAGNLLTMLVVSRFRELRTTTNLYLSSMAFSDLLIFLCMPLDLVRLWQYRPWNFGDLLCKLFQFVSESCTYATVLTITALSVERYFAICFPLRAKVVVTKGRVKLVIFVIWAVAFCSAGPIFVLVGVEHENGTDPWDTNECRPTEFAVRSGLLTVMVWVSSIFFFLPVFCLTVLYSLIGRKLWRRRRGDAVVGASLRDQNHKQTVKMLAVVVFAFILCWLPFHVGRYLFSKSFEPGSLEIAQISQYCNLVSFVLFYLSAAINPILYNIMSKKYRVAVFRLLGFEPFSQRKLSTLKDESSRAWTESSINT
Source text: as §1
For receptor competitive binding studies, iodinated ghrelin was used as a tracer at conditions of about 80% saturation binding. Different concentrations of the test compounds were analyzed for displacement of the tracer. For this purpose, the suspension of intact cells plus tracer mix and different test compound concentrations was layered on top of silicon/paraffin oil, incubated for 60 min at 37° C. and subjected to centrifugation. After freezing in liquid nitrogen the cell pellets were separated from the supernatant by cutting the tubes in the intermediate silicon/paraffin oil section and analyzed by γ-radiation analysis. The amount of unspecific binding was determined by including unlabeled ghrelin at 1 μM final concentration.
as §3
(§6) Values given are either single measurements or mean values of up to nine independent experiments performed in duplicate (binding) or quadruplicate (functional assays) measurements.

[9] = molecular target: T1, Human Ghrelin Receptor (GHS-R 1A); experiment: CRE/Luc reporter gene assay, antagonist; format: cell-based; details: 6 h, 1 μM rolipram
Source text: as §1
For the CRE/Luc reporter gene assay, the mouse LTK-cells stably expressing the human GHS-1RA and a luciferase reporter gene under the control of CRE elements and the CMV minimal promoter were incubated for 6 h with 1 μM rolipram in the presence of different concentrations of AEZS-130. Subsequently, cells were lysed and ATP bioluminescence was measured in the luminescence mode on FlexStation3 (Molecular Devices).
as §3, §6

[10] = molecular target: T1, Human Ghrelin Receptor (GHS-R 1A); experiment: Calcium release, antagonist; format: cell-based; details: 15 minutes preincubation, then ghrelin
Source text: as §1, §2, §3, §6

[11] = marker substrate midazolam, 30 minutes preincubation with NADPH, read-out: CYP3A4 Inhibition Midazolam Preincubation EC50
[12] = marker substrate midazolam, direct inhibition, human liver microsomes, read-out: CYP3A4 Inhibition Midazolam EC50
[13] = 15 minutes preincubation, then ghrelin, read-out: Mouse Ghrelin Receptor Antagonist Calcium Release IC50
[14] = 15 minutes preincubation, then ghrelin, read-out: Rat Ghrelin Receptor Antagonist Calcium Release IC50

Chain of Mouse Ghrelin Receptor (GHS-R 1A) (Q99P50 whole entry): as the sequence (O08725 whole entry) above, with P30S, A249S counted along it

Row | Structure (SMILES) | IC50 [1] | IC50 [2] | Inhibition of MDR1 ATPase EC50 [3] | hERG Predictor EC50 (hERG channel) | EC50 (CYP3A4; [11]) | EC50 (CYP3A4; [12]) | Stability in Liver Microsomes Human % Remaining after 1 h Incubation [4] | Stability in Liver Microsomes Rat % Remaining after 1 h Incubation [5] | Stability in Liver Microsomes Mouse % Remaining (@30 min) [6] | Papp A→B at 2 h [7] | Papp B→A at 2 h [7] | efflux ratio at 2 h [7] | IC50 [8] | IC50 [9] | IC50 [10] | IC50 [1, 13] | IC50 [2, 14] | EC50 (hERG channel) | EC50 (CYP3A4; marker substrate testosteron, 30 minutes preincubation with NADPH, read-out: CYP3A4 Inhibition Testosteron Preincubation EC50) | EC50 (CYP3A4; marker substrate testosteron, direct inhibition, human liver microsomes, read-out: CYP3A4 Inhibition Testosteron EC50)
1 | COc1ccc(Cn2c([C@@H](Cc3ccccc3)NC(C)=O)nnc2[C@@H](Cc2c[nH]c3ccccc23)NC(=O)c2ccccn2)cc1.O=C(O)C(F)(F)F [Cpd 4, Pyridine-2-carboxylic acid [(R)-1-[5-((R)-1-acetylamino-2-phenyl-ethyl)-4-(4-methoxy-benzyl)-4H-[1,2,4]triazol-3-yl]-2-(1H-indol-3-yl)-ethyl]-amide] | 68.7 nM | 239 nM | no full dose | no full dose | 2300 nM | 3900 nM | 9.1% | 46.7% | 0.0% | 1.41 ×10⁻⁶ cm/s | 25.4 ×10⁻⁶ cm/s | 18 | – | – | – | – | – | – | – | –
2 | COc1ccc(Cn2c([C@@H](Cc3ccccc3)NC=O)nnc2[C@@H](Cc2c[nH]c3ccccc23)NC(=O)c2ccccn2)cc1.O=C(O)C(F)(F)F [Cpd 5, Pyridine-2-carboxylic acid [(R)-1-[5-((R)-1-formylamino-2-phenyl-ethyl)-4-(4-methoxy-benzyl)-4H-[1,2,4]triazol-3-yl]-2-(1H-indol-3-yl)-ethyl]-amide] | – | – | no inhibition | no full dose | 1200 nM | 3800 nM | 0% | 41.9% | 0.0% | 1.26 ×10⁻⁶ cm/s | 16.8 ×10⁻⁶ cm/s | 13.3 | 3.4 nM | 8.3 nM | 3.1 nM | 89.3 nM | 290 nM | – | – | –
3 | COc1ccc(Cn2c(CCc3ccccc3)nnc2[C@@H](Cc2c[nH]c3ccccc23)NC(=O)OCC(C)C)cc1.O=C(O)C(F)(F)F [Cpd 17, {(R)-2-(1H-Indol-3-yl)-1-[4-(4-methoxy-benzyl)-5-phenethyl-4H-[1,2,4]triazol-3-yl]-ethyl}-carbamic acid isobutyl ester] | – | – | no full dose | – | – | – | 0% | 24.8% | 0.0% | 22.4 ×10⁻⁶ cm/s | 10 ×10⁻⁶ cm/s | 0.45 | 8.6 nM | 21.1 nM | 31.4 nM | 607 nM | 925 nM | 3680 nM | 2000 nM | 10400 nM

From patent US8546435B2, “Triazole derivatives with improved receptor activity and bioavailability properties as ghrelin antagonists of growth hormone secretagogue receptors” (AEterna Zentaris GmbH, priority 2010, dated 2013)
